Data taken from patent publication US12163169B2, “Inducible chimeric cytokine receptors” (Allogene Therapeutics, Inc., priority 2018, dated 2024).
Ends that are not written are not given here.

Tested on: STAT5
Assay: HEK293T Stat5 reporter assay of FKBP switches lacking JAK-binding motifs or cytotail tyrosines (Example 3B)
Assay type: cell-based
Conditions: 5 hours post-treatment, compared to positive control FKBP switch TpoR(478-582)/IL7R(316-459), FIG. 5B
Excerpt: To identify components essential for the inducible chimeric cytokine receptor to signal, we generated FKBP switches that lacked either the JAK-binding domains or tyrosine residues in the cytotail domain. Specifically, either one or both JAK-binding motifs from TpoR(478-582) were replaced with glycine linkers, or all or a single (i.e. Y449) tyrosine residue(s) in the IL7R(316-459) cytotail was mutated to phenylalanine. The term “switch” as used in the Example section refers to the inducible chimeric cytokine receptor. For example, an “FKBP switch” as used herein is an inducible chimeric cytokine receptor comprising FKBP as the dimerization domain.
A HEK293T cell reporter assay was used to test how each of these domains affected cytokine signaling. Briefly, 20,000 HEK293T cells were plated into each well of a poly-L-lysine-coated 96-well flat-bottom plate and allowed to adhere overnight. […] 24 hours after transfection, cells were either left untreated, or treated with the indicated concentrations of AP1903 (Apex Bio) diluted in serum-free media, and Stat reporter activity was determined 5 hours post-treatment using the Dual-Glo Luciferase Assay System (Promega). […]

“IL7R(424-459; Y456F): FKBP switch (Example 16) cytotail said to abrogate Stat5 activity, used as comparator (GILTLNPVAQGQPILTSLGSNQEEAYVTMSSFFQNQ; also: FKBP switch fusion; UniProt P16871 424-459, looked up, variant Y456F)” was tested, and the “AP1903-induced Stat5 reporter activity” value was “abrogates Stat5 activity”.
